Results published in EP0302824A2 (priority 1987, dated 1989).

System: Heliothis virescens larvae
Assay: Systemic activity of seed applied furathiocarb, larvae caged on maize leaves
Format: in vivo
Description: This example includes the results of three test series using different maize cultivars F7 x F2, Centaurus and Arjuna. The basic experimental procedure is that used in example 20 therefore only differences are mentioned here.
Seeds of the hybrid F7 x F2 are treated with 10 g/kg furathiocarb in either PVAc/PVAl or association polymer systems. Treatment techniques are described earlier. Seeds are sown in 4 soil types: 100% quartz sand, 98% quartz sand plus 2% peat, 95% quartz sand plus 5% peat and 90% quartz sand plus 10% peat. Soil moisture is maintained at 10% for the 100% and 98% sand mixtures and at 20% for the other two soil types. All percentages are based on dry weight.
Insecticidal activity is tested by caging 5 first instar Heliothis virescens larvae on each leaf of the maize plants. The insects are caged on the leaves at 9 and 14 days after planting and are allowed to feed for 5 and 3 days respectively. The test is evaluated by counting surviving larvae and by visually assessing feeding damage. To achieve this consistently, the leaf is compared to standard diagrams and the percentage eaten is estimated as 0, 1, 2, 5, 10, 20 or 50% or the total area.
Seeds of the hybrid Centaurus are treated with both 4 and 10 g/kg furathiocarb in either PVAc/PVAl or association polymer systems. Seeds are sown in two soil types either earth from Stein, Canton Aargau, Switzerland (exact description given earlier) or in a 98% sand 2% peat mixture. Moisture content is 20% of dry weight for the former and 10% for the latter. H. virescens is again used to test insecticidal activity. The larvae are caged on the leaves either 8 or 14 days after planting and are allowed to feed for 4 days.
Seeds of the cultivar Arjuna are treated with 2.5 and 10 g/kg furathiocarb in either PVAc/PVAl or association polymer systems. Seeds are sown in the two soil types used in the tests of the hybrid Centaurus. H. virescens is again the test insect and the larvae are caged on individual leaves 10 and 14 days after planting; they are allowed to feed for 4 days. Only 10 g rates are tested at the second date.

[1] = cultivar Arjuna, 98% Sand, time 1 week, Association Polymer, dosage 2.5 g
[2] = cultivar Arjuna, 98% Sand, time 1 week, Association Polymer, dosage 10 g
[3] = cultivar Arjuna, 98% Sand, time 1 week, PVAc/PVAl, dosage 2.5 g
[4] = cultivar Arjuna, 98% Sand, time 1 week, PVAc/PVAl, dosage 10 g
[5] = cultivar Arjuna, 98% Sand, time 2 weeks, Association Polymer, dosage 10 g
[6] = cultivar Arjuna, 98% Sand, time 2 weeks, PVAc/PVAl, dosage 10 g
[7] = cultivar Arjuna, Stein Earth, time 1 week, Association Polymer, dosage 2.5 g
[8] = cultivar Arjuna, Stein Earth, time 1 week, Association Polymer, dosage 10 g
[9] = cultivar Arjuna, Stein Earth, time 1 week, PVAc/PVAl, dosage 2.5 g
[10] = cultivar Arjuna, Stein Earth, time 1 week, PVAc/PVAl, dosage 10 g
[11] = cultivar Arjuna, Stein Earth, time 2 weeks, Association Polymer, dosage 10 g
[12] = cultivar Arjuna, Stein Earth, time 2 weeks, PVAc/PVAl, dosage 10 g
[13] = hybrid Centaurus, 98% Sand, time 1 week, Association Polymer, dosage 4 g
[14] = hybrid Centaurus, 98% Sand, time 1 week, Association Polymer, dosage 10 g
[15] = hybrid Centaurus, 98% Sand, time 1 week, PVAc/PVAl, dosage 4 g
[16] = hybrid Centaurus, 98% Sand, time 1 week, PVAc/PVAl, dosage 10 g
[17] = hybrid Centaurus, 98% Sand, time 2 weeks, Association Polymer, dosage 4 g
[18] = hybrid Centaurus, 98% Sand, time 2 weeks, Association Polymer, dosage 10 g
[19] = hybrid Centaurus, 98% Sand, time 2 weeks, PVAc/PVAl, dosage 4 g
[20] = hybrid Centaurus, 98% Sand, time 2 weeks, PVAc/PVAl, dosage 10 g
[21] = hybrid Centaurus, Stein Earth, time 1 week, Association Polymer, dosage 4 g
[22] = hybrid Centaurus, Stein Earth, time 1 week, Association Polymer, dosage 10 g
[23] = hybrid Centaurus, Stein Earth, time 1 week, PVAc/PVAl, dosage 4 g
[24] = hybrid Centaurus, Stein Earth, time 1 week, PVAc/PVAl, dosage 10 g
[25] = hybrid Centaurus, Stein Earth, time 2 weeks, Association Polymer, dosage 4 g
[26] = hybrid Centaurus, Stein Earth, time 2 weeks, Association Polymer, dosage 10 g
[27] = hybrid Centaurus, Stein Earth, time 2 weeks, PVAc/PVAl, dosage 4 g
[28] = hybrid Centaurus, Stein Earth, time 2 weeks, PVAc/PVAl, dosage 10 g
[29] = hybrid F7 x F2, 10 g/kg, 90% Sand, time 1 week, Association Polymer
[30] = hybrid F7 x F2, 10 g/kg, 90% Sand, time 1 week, PVAc/PVAl
[31] = hybrid F7 x F2, 10 g/kg, 90% Sand, time 2 weeks, Association Polymer
[32] = hybrid F7 x F2, 10 g/kg, 90% Sand, time 2 weeks, PVAc/PVAl
[33] = hybrid F7 x F2, 10 g/kg, 95% Sand, time 1 week, Association Polymer
[34] = hybrid F7 x F2, 10 g/kg, 95% Sand, time 1 week, PVAc/PVAl
[35] = hybrid F7 x F2, 10 g/kg, 95% Sand, time 2 weeks, Association Polymer
[36] = hybrid F7 x F2, 10 g/kg, 95% Sand, time 2 weeks, PVAc/PVAl
[37] = hybrid F7 x F2, 10 g/kg, 98% Sand, time 1 week, Association Polymer
[38] = hybrid F7 x F2, 10 g/kg, 98% Sand, time 1 week, PVAc/PVAl
[39] = hybrid F7 x F2, 10 g/kg, 98% Sand, time 2 weeks, Association Polymer
[40] = hybrid F7 x F2, 10 g/kg, 98% Sand, time 2 weeks, PVAc/PVAl
[41] = hybrid F7 x F2, 10 g/kg, 100% Sand, time 1 week, Association Polymer
[42] = hybrid F7 x F2, 10 g/kg, 100% Sand, time 1 week, PVAc/PVAl
[43] = hybrid F7 x F2, 10 g/kg, 100% Sand, time 2 weeks, Association Polymer
[44] = hybrid F7 x F2, 10 g/kg, 100% Sand, time 2 weeks, PVAc/PVAl

In the case of CCCCOC(=O)N(C)SN(C)C(=O)Oc1cccc2c1OC(C)(C)C2 [furathiocarb], the “Percent survival of H. virescens larvae” value [1] is reported as 4%, the “Scores of damage caused by H. virescens larvae” value (shortened to “Scores of damage caused”) [1] is reported as 2.1 and the “Percent survival of H. virescens larvae” value [2] is reported as 6%. For the same molecule, the “Scores of damage caused” value [2] was 2.5, the “Percent survival of H. virescens larvae” value [3] was 50% and the “Scores of damage caused” value [3] was 4.9. For the same molecule, the “Percent survival of H. virescens larvae” value [4] was 28%, the “Scores of damage caused” value [4] was 3.4 and the “Percent survival of H. virescens larvae” value [5] was 8%. For the same molecule, the “Scores of damage caused” value [5] was 2.7, the “Percent survival of H. virescens larvae” value [6] was 37% and the “Scores of damage caused” value [6] was 4.7. For the same molecule, the “Percent survival of H. virescens larvae” value [7] was 30%, the “Scores of damage caused” value [7] was 3.3 and the “Percent survival of H. virescens larvae” value [8] was 2%. The “Scores of damage caused” value [8] was 1.8, the “Percent survival of H. virescens larvae” value [9] was 22% and the “Scores of damage caused” value [9] was 3.3. The “Percent survival of H. virescens larvae” value [10] was 8%, the “Scores of damage caused” value [10] was 2.1 and the “Percent survival of H. virescens larvae” value [11] was 9%. The “Scores of damage caused” value [11] was 2.7, the “Percent survival of H. virescens larvae” value [12] was 21% and the “Scores of damage caused” value [12] was 3.5. The “Percent survival of H. virescens larvae” value [13] was 2%, the “Scores of damage caused” value [13] was 1.5 and the “Percent survival of H. virescens larvae” value [14] was 0%. For the same molecule, the “Scores of damage caused” value [14] was 1.3, the “Percent survival of H. virescens larvae” value [15] was 8% and the “Scores of damage caused” value [15] was 1.9. For the same molecule, the “Percent survival of H. virescens larvae” value [16] was 12%, the “Scores of damage caused” value [16] was 2.0 and the “Percent survival of H. virescens larvae” value [17] was 31%. For the same molecule, the “Scores of damage caused” value [17] was 4.1, the “Percent survival of H. virescens larvae” value [18] was 13% and the “Scores of damage caused” value [18] was 2.8. For the same molecule, the “Percent survival of H. virescens larvae” value [19] was 46%, the “Scores of damage caused” value [19] was 5.5 and the “Percent survival of H. virescens larvae” value [20] was 51%. For the same molecule, the “Scores of damage caused” value [20] was 5.8, the “Percent survival of H. virescens larvae” value [21] was 7% and the “Scores of damage caused” value [21] was 1.9. For the same molecule, the “Percent survival of H. virescens larvae” value [22] was 10%, the “Scores of damage caused” value [22] was 2.0 and the “Percent survival of H. virescens larvae” value [23] was 25%. For the same molecule, the “Scores of damage caused” value [23] was 2.8, the “Percent survival of H. virescens larvae” value [24] was 10% and the “Scores of damage caused” value [24] was 2.0. For the same molecule, the “Percent survival of H. virescens larvae” value [25] was 49%, the “Scores of damage caused” value [25] was 4.4 and the “Percent survival of H. virescens larvae” value [26] was 22%. For the same molecule, the “Scores of damage caused” value [26] was 3.0, the “Percent survival of H. virescens larvae” value [27] was 32% and the “Scores of damage caused” value [27] was 3.9. The “Percent survival of H. virescens larvae” value [28] was 27%, the “Scores of damage caused” value [28] was 3.4 and the “Percent survival of H. virescens larvae” value [29] was 34%. For the same molecule, the “Scores of damage caused” value [29] was 4.9, the “Percent survival of H. virescens larvae” value [30] was 48% and the “Scores of damage caused” value [30] was 6.0. For the same molecule, the “Percent survival of H. virescens larvae” value [31] was 42%, the “Scores of damage caused” value [31] was 4.2 and the “Percent survival of H. virescens larvae” value [32] was 61%. The “Scores of damage caused” value [32] was 4.9, the “Percent survival of H. virescens larvae” value [33] was 16% and the “Scores of damage caused” value [33] was 3.2. For the same molecule, the “Percent survival of H. virescens larvae” value [34] was 48%, the “Scores of damage caused” value [34] was 6.4 and the “Percent survival of H. virescens larvae” value [35] was 50%. The “Scores of damage caused” value [35] was 4.4, the “Percent survival of H. virescens larvae” value [36] was 64% and the “Scores of damage caused” value [36] was 4.8. The “Percent survival of H. virescens larvae” value [37] was 16%, the “Scores of damage caused” value [37] was 4.2 and the “Percent survival of H. virescens larvae” value [38] was 36%. The “Scores of damage caused” value [38] was 6.5, the “Percent survival of H. virescens larvae” value [39] was 37% and the “Scores of damage caused” value [39] was 3.7. The “Percent survival of H. virescens larvae” value [40] was 75%, the “Scores of damage caused” value [40] was 5.2 and the “Percent survival of H. virescens larvae” value [41] was 18%. The “Scores of damage caused” value [41] was 3.5, the “Percent survival of H. virescens larvae” value [42] was 40% and the “Scores of damage caused” value [42] was 5.1. For the same molecule, the “Percent survival of H. virescens larvae” value [43] was 45%, the “Scores of damage caused” value [43] was 4.0 and the “Percent survival of H. virescens larvae” value [44] was 42%. For the same molecule, the “Scores of damage caused” value [44] was 3.6.
